The experiment deals with T1, G protein-coupled receptor 119 (GPR-119) (Mesocricetus auratus, UniProt A0A1U8CD06).
T1 construct: hamster-derived β-cells containing G protein-coupled receptor 119 (GPR-119), HIT-T15 cells; host or cells: HIT-T15 (hamster pancreatic β-cells)
T1 sequence (A0A1U8CD06 1-334): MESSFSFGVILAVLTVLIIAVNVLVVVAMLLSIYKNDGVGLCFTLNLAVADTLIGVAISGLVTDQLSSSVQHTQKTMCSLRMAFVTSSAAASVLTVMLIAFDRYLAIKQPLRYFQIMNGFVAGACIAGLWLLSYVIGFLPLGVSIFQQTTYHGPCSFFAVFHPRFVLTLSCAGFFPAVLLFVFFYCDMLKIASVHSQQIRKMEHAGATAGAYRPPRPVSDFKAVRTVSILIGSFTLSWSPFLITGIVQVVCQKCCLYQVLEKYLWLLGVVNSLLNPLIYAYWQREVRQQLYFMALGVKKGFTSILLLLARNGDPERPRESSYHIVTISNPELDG
Kind of experiment: Evaluation of cAMP activity in HIT-T15 cells (HTRF cAMP dynamic kit). To be noted: cAMP activation. Format: cell-based, hamster. In outline: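 HIT-T15 cells, 60,000/well, treated next day with compound at six concentrations ([…]) for 1 h at 37° C. Lysate cAMP quantified by HTRF competitive immunoassay (D2-cAMP, cryptate anti-cAMP); activity taken as change in FRET signal relative to DMSO.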
A general note: TR-FRET usually uses a lanthanide donor and a delayed reading to cut background.

Where [1] appears, read: 1 h at 37° C., six concentrations, read-out: EC50.

Each structure is given as a SMILES string. Where a name gives a salt, the structure may show the parent alone. Read-outs that look alike come from different tables or passages of the source.

The term EC50 denotes the concentration needed to bring the measured effect to its halfway point.

In the case of `CC(C)c1noc(N2CCC(COc3ccc(C4=CCC(C(=O)N5CCC6(CC5)OCCO6)CC4)cc3)CC2)n1` (stereo not shown) [Example 267, (4-(4-((1-(3-isopropyl-1,2,4-oxadiazol-5-yl)piperidin-4-yl)methoxy)phenyl)cyclohex-3-enyl)(1,4-dioxa-8-azaspiro[4.5]decan-8-yl)methanone], the EC50 reads like this: (EC50 (nM), 1 h at 37° C., six concentrations) 21 nM; (EC50 value) not above 50 nM.
Consider `CC(C)(C)OC(=O)N1CCC(COc2ccc(C3=CCC(C(=O)NCCF)CC3)c(F)c2)CC1` (stereo not shown) [Example 138, tert-butyl 4-((3-fluoro-4-(4-(2-fluoroethylcarbamoyl)cyclohex-1-enyl)phenoxy)methyl)piperidine-1-carboxylate], for which, under setting [1], the half-maximal effective concentration (EC50) amounted to 100 nM.
On the same count and under the same terms, to `CC(C)c1noc(N2CCC(COc3ccc(C4=CCC(C(=O)NC(CO)CO)CC4)nc3)CC2)n1` (stereo not shown) [Example 46, N-(1,3-dihydroxypropan-2-yl)-4-(5-((1-(3-isopropyl-1,2,4-oxadiazol-5-yl)piperidin-4-yl)methoxy)pyridin-2-yl)cyclohex-3-enecarboxamide] belongs 500 nM; to `CC(C)c1noc(N2CCC(COc3ccc(C4=CCC(C(=O)N[C@@H](C)CO)CC4)cc3F)CC2)n1` (stereo partly drawn) [Example 83, 4-(3-fluoro-4-((1-(3-isopropyl-1,2,4-oxadiazol-5-yl)piperidin-4-yl)methoxy)phenyl)-N-((S)-1-hydroxypropan-2-yl)cyclohex-3-enecarboxamide], 75 nM.
Consider `C[C@H](CO)NC(=O)C1CC=C(c2ccc(OCC3CCN(C(=O)OC(C)(C)C)CC3)cc2F)CC1` (stereo partly drawn) [Example 129, tert-butyl 4-((3-fluoro-4-(4-((R)-1-hydroxypropan-2-ylcarbamoyl)cyclohex-1-enyl)phenoxy)methyl)piperidine-1-carboxylate], for which, under setting [1], the EC50 is 140 nM.
On the same count and under the same terms, the value for `C[C@H](CO)NC(=O)C1CC=C(c2ccc(OCC3CCN(C(=O)OC(C)(C)C)CC3)nc2)CC1` (stereo partly drawn) [Example 25, tert-butyl 4-((5-(4-((R)-1-hydroxypropan-2-ylcarbamoyl)cyclohex-1-enyl)pyridin-2-yloxy)methyl)piperidine-1-carboxylate] was 210 nM.
As for `CCc1cnc(N2CCC(COc3ccc(C4=CCC(C(=O)N5CCC(O)CC5)CC4)cc3)CC2)nc1` (stereo not shown) [Example 164, (4-(4-((1-(5-ethylpyrimidin-2-yl)piperidin-4-yl)methoxy)phenyl)cyclohex-3-enyl)(4-hydroxypiperidin-1-yl)methanone], the half-maximal effective concentration (EC50) under setting [1] worked out at 16 nM and the EC50 (read-out: EC50 value) is not above 50 nM.
On the same counts, the results for `CC(C)(CO)CNC(=O)C1CC=C(c2ccc(OCC3CCN(C(=O)OC(C)(C)C)CC3)c(F)c2)CC1` (stereo not shown) [Example 82, tert-butyl 4-((2-fluoro-4-(4-(3-hydroxy-2,2-dimethylpropylcarbamoyl)cyclohex-1-enyl)phenoxy)methyl)piperidine-1-carboxylate] are 9 nM and not above 50 nM.
For `CCc1cnc(N2CCC(COc3ccc(C4=CCC(C(=O)N5CCC(=O)C5)CC4)cc3)CC2)nc1` (stereo not shown) [Example 250, 1-(4-(4-((1-(5-ethylpyrimidin-2-yl)piperidin-4-yl)methoxy)phenyl)cyclohex-3-enecarbonyl)pyrrolidin-3-one] the same measures were 12 nM and not above 50 nM.
`C[C@@H](O)CNC(=O)C1CC=C(c2ccc(OCC3CCN(C(=O)OC(C)(C)C)CC3)c(F)c2)CC1` (stereo partly drawn) [Example 62, tert-butyl 4-((2-fluoro-4-(4-((R)-2-hydroxypropylcarbamoyl)cyclohex-1-enyl)phenoxy)methyl)piperidine-1-carboxylate]: the EC50 under setting [1] came out at 70 nM.
On to `CCc1cnc(N2CCC(COc3ccc(C4=CCC(C(=O)N5C/C(=N\OC)C6(CN(C(=O)OC(C)(C)C)C6)C5)CC4)cc3)CC2)nc1` (stereo not shown) [Example 254, (Z)-tert-butyl 6-(4-(4-((1-(5-ethylpyrimidin-2-yl)piperidin-4-yl)methoxy)phenyl)cyclohex-3-enecarbonyl)-8-(methoxyimino)-2,6-diazaspiro[3.4]octane-2-carboxylate], for which the EC50 under setting [1] was determined as 10 nM and the EC50 (read-out: EC50 value) was not above 50 nM.
Consider `CC(C)c1noc(N2CCC(COc3ccc(C4=CCC(C(=O)NCCF)CC4)cc3F)CC2)n1` (stereo not shown) [Example 94, 4-(3-fluoro-4-((1-(3-isopropyl-1,2,4-oxadiazol-5-yl)piperidin-4-yl)methoxy)phenyl)-N-(2-fluoroethyl)cyclohex-3-enecarboxamide], for which the EC50 under setting [1] was determined as 68 nM.
`CCc1cnc(N2CCC(COc3ccc(C4=CCC(C(=O)N(C)CCO)CC4)cc3)CC2)nc1` (stereo not shown) [Example 21, 4-(4-((1-(5-ethylpyrimidin-2-yl)piperidin-4-yl)methoxy)phenyl)-N-(2-hydroxyethyl)-N-methylcyclohex-3-enecarboxamide]: the EC50 by setting is: under setting [1], 16 nM; (read-out: EC50 value) not above 50 nM.
For `CCc1cnc(N2CCC(COc3ccc(C4=CCC(C(=O)NC[C@H](O)CO)CC4)cc3)CC2)nc1` (stereo partly drawn) [Example 128, N-((S)-2,3-dihydroxypropyl)-4-(4-((1-(5-ethylpyrimidin-2-yl)piperidin-4-yl)methoxy)phenyl)cyclohex-3-enecarboxamide], under setting [1], the half-maximal effective concentration (EC50) turned out to be 200 nM.
With `CC(C)c1noc(N2CCC(COc3ccc(C4=CCC(C(=O)N5CC[C@@H](CO)C5)CC4)cc3)CC2)n1` (stereo partly drawn) [Example 149, ((R)-3-(hydroxymethyl)pyrrolidin-1-yl)(4-(4-((1-(3-isopropyl-1,2,4-oxadiazol-5-yl)piperidin-4-yl)methoxy)phenyl)cyclohex-3-enyl)methanone], the EC50 under setting [1] is 23 nM and the EC50 (read-out: EC50 value) was not above 50 nM.
On to `CC(C)c1noc(N2CCC(COc3ccc(C4=CCC(C(=O)N[C@H](C)CO)CC4)nc3)CC2)n1` (stereo partly drawn) [Example 36, N-((R)-1-hydroxypropan-2-yl)-4-(5-((1-(3-isopropyl-1,2,4-oxadiazol-5-yl)piperidin-4-yl)methoxy)pyridin-2-yl)cyclohex-3-enecarboxamide], for which the EC50 under setting [1] was determined as 170 nM.
Take `CC(C)c1noc(N2CCC(COc3ccc(C4=CCC(C(=O)N5CC[C@@H](F)C5)CC4)cc3F)CC2)n1` (stereo partly drawn) [Example 96, (4-(3-fluoro-4-((1-(3-isopropyl-1,2,4-oxadiazol-5-yl)piperidin-4-yl)methoxy)phenyl)cyclohex-3-enyl)((R)-3-fluoropyrrolidin-1-yl)methanone]: the EC50 is 27 nM under setting [1] and not above 50 nM (read-out: EC50 value).
For `CC(C)(C)OC(=O)N1CCC(COc2ccc(C3=CCC(C(=O)N4CCSCC4)CC3)cc2F)CC1` (stereo not shown) [Example 71, tert-butyl 4-((2-fluoro-4-(4-(thiomorpholine-4-carbonyl)cyclohex-1-enyl)phenoxy)methyl)piperidine-1-carboxylate] the same measures were 5.4 nM and not above 50 nM.
Consider `C[C@@H](CO)NC(=O)C1CC=C(c2ccc(OCC3CCN(C(=O)OC(C)(C)C)CC3)cc2F)CC1` (stereo partly drawn) [Example 130, tert-butyl 4-((3-fluoro-4-(4-((S)-1-hydroxypropan-2-ylcarbamoyl)cyclohex-1-enyl)phenoxy)methyl)piperidine-1-carboxylate], for which, under setting [1], the EC50 worked out at 90 nM.
`CCc1cnc(N2CCC(COc3ccc(C4=CCC(C(=O)N5CC[C@H](F)C5)CC4)cc3)CC2)nc1` (stereo partly drawn) [Example 161, (4-(4-((1-(5-ethylpyrimidin-2-yl)piperidin-4-yl)methoxy)phenyl)cyclohex-3-enyl)((S)-3-fluoropyrrolidin-1-yl)methanone hydrochloride]: the EC50 under setting [1] came out at 6 nM.
Turning to `CC(C)(C)OC(=O)N1CCC(COc2ccc(C3=CCC(C(=O)NC[C@@H](O)CO)CC3)nc2)CC1` (stereo partly drawn) [Example 10, tert-butyl 4-((6-(4-((R)-2,3-dihydroxypropylcarbamoyl)cyclohex-1-enyl)pyridin-3-yloxy)methyl)piperidine-1-carboxylate], the 50% effective concentration (EC50) under setting [1] turned out to be 500 nM.
In the case of `CN(CCO)C(=O)C1CC=C(c2ccc(OCC3CCN(C(=O)OC(C)(C)C)CC3)cc2)CC1` (stereo not shown) [Example 236, tert-butyl 4-((4-(4-((2-hydroxyethyl)(methyl)carbamoyl)cyclohex-1-enyl)phenoxy)methyl)piperidine-1-carboxylate], the EC50 by setting is: under setting [1], 14 nM; (read-out: EC50 value) not above 50 nM.
For `CCc1cnc(N2CCC(COc3ccc(C4=CCC(C(=O)N5CCC(N6CCOCC6)CC5)CC4)cc3)CC2)nc1` (stereo not shown) [Example 220, (4-(4-((1-(5-ethylpyrimidin-2-yl)piperidin-4-yl)methoxy)phenyl)cyclohex-3-enyl)(4-morpholinopiperidin-1-yl)methanone] the same measures were 40 nM and not above 50 nM.
As to `CC(C)(C)OC(=O)N1CCC(COc2ccc(C3=CCC(C(=O)NC[C@H](O)CO)CC3)cn2)CC1` (stereo partly drawn) [Example 33, tert-butyl 4-((5-(4-((S)-2,3-dihydroxypropylcarbamoyl)cyclohex-1-enyl)pyridin-2-yloxy)methyl)piperidine-1-carboxylate], under setting [1], the EC50 turned out to be 600 nM.
On to `C[C@H](O)CNC(=O)C1CC=C(c2ccc(OCC3CCN(C(=O)OC(C)(C)C)CC3)c(F)c2)CC1` (stereo partly drawn) [Example 61, tert-butyl 4-((2-fluoro-4-(4-((S)-2-hydroxypropylcarbamoyl)cyclohex-1-enyl)phenoxy)methyl)piperidine-1-carboxylate], for which the EC50 under setting [1] was determined as 45 nM and the EC50 (read-out: EC50 value) is not above 50 nM.

The values are drawn from patent US9758527B2, “Cyclohexene derivative, preparation method therefor, and pharmaceutical composition for preventing or treating metabolic diseases, containing same as active ingredient” (HYUNDAI PHARM CO., LTD., priority 2014, dated 2017).
